The source of these data is patent US20230114728A1 (Venatorx Pharmaceuticals, Inc., priority 2019, published 2023).

As a reminder, the EC50 is the midpoint of the concentration-response curve.

This assay deals with T1, E. coli K12 PBP1b (Escherichia coli, UniProt P02919).
T1 construct: made in house
The assay can be described thus: Radioligand competition binding assay with 14C-labeled boronic acid probe, E. coli PBP1b. As to conditions: competition binding assay using 14C-labeled boronic acid probe; read-out: E. coli K12 PBP1b EC50. The source says: Example II: Experimental Method to Assess Binding to Penicillin-Binding Proteins: Radioligand Competition Binding Assay
To determine the ability of boronic acid-based test PBP inhibitors to bind Penicillin Binding Proteins (PBPs), a radio-labelled boronic acid PBP inhibitor:
was used in competition binding assays to determine boronic acid PBP inhibitor binding to PBP1a or PBP1b from Escherichia coli. PBP1a and PBP1b were purified as described previously (Bertsche, U.; et al., J Biol. Chem. 2005, 280 (45), 38096-38101; Born, P.; et al., J Biol. Chem. 2006. 281 (37), 26985-26993). To establish assay conditions for competition binding, an enzyme titration/saturation binding experiment was performed. Saturation binding was performed in a buffer comprised of 20 mM Tris (pH 7.5), 500 mM NaCl and 0.1% (v/v) TritonX-100, with PBP1a/PBP1b at a final concentration of 0.1 μM and Compound A at final concentrations ranging from 0-100 μM. Mixtures were incubated for 60 minutes, then applied to Zeba Spin Desalting columns or plates (ThermoFisher Scientific) and centrifuged at 1000-1500×g for 2 minutes. The flow through, containing PBP bound with Compound A, was recovered and 100 μL mixed with 5 mL of UltimaGold liquid scintillation cocktail (Perkin Elmer), and the radioactivity counted using a Beckman Coulter LS 6500 Multipurpose scintillation counter. PBP binding of Compound A approached saturation at 20 μM of ^14C-labeled probe. The competition binding assay was validated using the beta-lactam ampicillin, with Compound A at a final concentration of 20 μM, PBP1a/PBP1b at a final concentration of 0.1 μM. PBP1a/PBP1b was incubated with ampicillin in a 96-well microplate for 60 minutes, then Compound A was added and the mixtures incubated for an additional 60 minutes. The mixtures were then applied to Zeba Spin desalting plates and centrifuged at 1000×g for 2 minutes. The flow through was recovered and 100 μl mixed with 5 ml of UltimaGold liquid scintillation cocktail and the radioactivity counted. […] Binding assays with boronic acid PBP inhibitors were performed in an identical fashion. […]
In general terms: Loss of bound radioactivity is the signal in a displacement assay; it reports binding, not function.

T1 sequence (P02919 whole entry): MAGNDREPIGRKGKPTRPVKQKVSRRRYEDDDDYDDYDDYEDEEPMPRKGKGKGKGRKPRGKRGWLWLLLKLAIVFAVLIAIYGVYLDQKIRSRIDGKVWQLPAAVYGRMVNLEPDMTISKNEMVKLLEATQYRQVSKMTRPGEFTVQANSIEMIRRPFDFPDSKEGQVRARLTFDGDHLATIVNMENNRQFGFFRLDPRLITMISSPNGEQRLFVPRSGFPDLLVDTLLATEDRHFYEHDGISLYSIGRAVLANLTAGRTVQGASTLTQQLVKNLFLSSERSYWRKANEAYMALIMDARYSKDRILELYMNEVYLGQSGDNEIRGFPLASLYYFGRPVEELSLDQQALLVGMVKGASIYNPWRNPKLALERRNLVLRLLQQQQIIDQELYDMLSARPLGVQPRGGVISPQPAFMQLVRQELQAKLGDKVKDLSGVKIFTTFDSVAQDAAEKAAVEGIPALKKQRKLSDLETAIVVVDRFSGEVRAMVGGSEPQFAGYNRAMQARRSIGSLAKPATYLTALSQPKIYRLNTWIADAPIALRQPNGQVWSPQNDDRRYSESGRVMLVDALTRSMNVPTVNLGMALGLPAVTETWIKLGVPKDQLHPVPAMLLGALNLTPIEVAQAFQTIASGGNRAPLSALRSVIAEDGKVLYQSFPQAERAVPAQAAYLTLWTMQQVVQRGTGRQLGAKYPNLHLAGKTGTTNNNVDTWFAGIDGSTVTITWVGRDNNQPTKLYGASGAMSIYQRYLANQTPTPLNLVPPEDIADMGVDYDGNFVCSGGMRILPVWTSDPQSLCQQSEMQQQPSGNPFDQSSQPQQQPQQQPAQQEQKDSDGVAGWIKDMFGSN

On to `CCN1CCN(C(=O)NC(C(=O)N[C@H]2Cc3ccc(S)c(C(=O)O)c3OB2O)c2csc(N)n2)C(=O)C1=O` (stereo partly drawn) [Example 54, (3R)-3-(2-(2-aminothiazol-4-yl)-2-(4-ethyl-2,3-dioxopiperazine-1-carboxamido)acetamido)-2-hydroxy-7-mercapto-3,4-dihydro-2H-benzo[e][1,2]oxaborinine-8-carboxylic acid], for which the concentration giving a half-maximal response (EC50) lay within 10 to 100 µM.
Next, `CCN1CCN(C(=O)NC(C(=O)N[C@H]2Cc3ccc(SCc4ccc(O)cc4)c(C(=O)O)c3OB2O)c2csc(N)n2)C(=O)C1=O` (stereo partly drawn) [Example 55, (3R)-3-(2-(2-aminothiazol-4-yl)-2-(4-ethyl-2,3-dioxopiperazine-1-carboxamido)acetamido)-2-hydroxy-7-((4-hydroxybenzyl)thio)-3,4-dihydro-2H-benzo[e][1,2]oxaborinine-8-carboxylic acid]: more than 100 µM.
